# Test results taken from ChEMBL document CHEMBL3638498, “Pharmaceutical compounds” (2014).
# Target: T1, Serine/threonine-protein kinase Chk1 (Homo sapiens, UniProt O14757)
# T1 sequence (O14757 whole entry): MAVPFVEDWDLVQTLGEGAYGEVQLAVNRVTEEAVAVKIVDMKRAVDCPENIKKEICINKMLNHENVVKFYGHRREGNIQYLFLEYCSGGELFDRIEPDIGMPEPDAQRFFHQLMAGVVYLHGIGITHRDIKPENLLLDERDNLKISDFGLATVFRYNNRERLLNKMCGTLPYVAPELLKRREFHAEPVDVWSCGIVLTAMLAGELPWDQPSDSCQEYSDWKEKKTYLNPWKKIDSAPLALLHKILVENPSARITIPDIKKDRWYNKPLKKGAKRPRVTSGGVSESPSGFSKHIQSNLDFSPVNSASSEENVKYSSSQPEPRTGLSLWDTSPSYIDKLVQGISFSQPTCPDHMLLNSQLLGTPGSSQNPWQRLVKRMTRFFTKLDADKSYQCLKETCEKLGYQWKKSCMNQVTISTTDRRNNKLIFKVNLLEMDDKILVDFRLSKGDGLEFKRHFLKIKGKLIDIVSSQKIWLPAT
# Experiment: Inhibiting Assay: The compounds of the invention were tested for activity against Chk-1 kinase using the materials and protocols set out below. Reaction Buffer: Base Reaction buffer: 20 mM Hepes (pH 7.5), 10 mM MgCl2, 1 mM EGTA, 0.02% Brij35, 0.02 mg/ml BSA, 0.1 mM Na3VO4, 2 mM DTT, 1% DMSO. Required cofactors are added individually to each kinase reaction Reaction Procedure:(i) Prepare indicated substrate in freshly prepared Base Reaction Buffer(ii) Deliver any required cofactors to the substrate solution above(iii) Deliver indicated kinase into the substrate solution and gently mix(iv) Deliver compounds in DMSO into the kinase reaction mixture(v) Deliver 33P-ATP (specific activity 0.01 μCi/μl final) into the reaction mixture to initiate the reaction.(vi) Incubate kinase reaction for 120 minutes at room temperature(vii) Reactions are spotted onto P81 ion exchange paper (Whatman #3698-915)(viii) Wash filters extensively in 0.1% phosphoric acid.(ix) Measure counts in scintillation counter.
# Type: organism-based
smiles,measurement,value
N#Cc1cnc(NC(=O)Nc2ccc(CCNCc3ccc(F)cc3)c(Br)c2)cn1,IC50,19 nM
